Assay results published in patent US9221864B2, “Tricyclic nucleic acid analogs” (Isis Pharmaceuticals, Inc., priority 2012, dated 2015).

Tests used:
Assay type in all cases: binding
[1] = system: mismatched RNA complement 5′-r(AGCAAAZAACGC)-3′, Z=G; test: Mismatch discrimination (Tm) vs mismatched RNA complement, Z=G; conditions: 1.2 μM, 10 mM sodium phosphate buffer pH 7.2, 100 mM NaCl, 0.1 mM EDTA
Procedure: (§1) The oligomeric compounds in Table 1 were evaluated for thermal stability (Tm) using the method described herein. The Tm of the modified 12mer oligomeric compounds were compared to an unmodified 12mer DNA oligonucleotide when duplexed to either the matched or mismatched RNA complement.
(§2) Tm's were determined using a Cary 100 Bio spectrophotometer with the Cary Win UV thermal program was used to measure absorbance vs. temperature. For the Tm experiments, the oligomeric compounds were prepared at a concentration of 1.2 μM in 10 mM sodium phosphate buffer (pH 7.2) containing 100 mM NaCl and 0.1 mM EDTA. The concentrations, determined at 85° C. was 1.2 μM after mixing of equal volumes of selected oligomeric compound and complementary matched or mismatched RNA. The oligomeric compounds were hybridized with a complimentary matched or mismatched RNA by heating the duplex to 90° C. for 5 minutes and then cooling to room temperature. Tm measurements were taken using a spectrophotometer while the duplex solution was heated in a cuvette at a rate of 0.5° C./min starting at 15° C. until the temperature was 85° C. Tm values were determined using Vant Hoff calculations (A260 vs temperature curve) using non self-complementary sequences where the minimum absorbance related to the duplex and the maximum absorbance related to the non-duplex single strand are manually integrated into the program. Mismatched thermal stability was also measured and calculated by subtracting values of Tm measured vs the mismatched RNA complement from values of Tm vs the matched RNA complement for each modification.
(§3) The sequence for matched DNA complement is designated herein as SEQ ID No.: 6, 5′-d(AGCAAAXAACGC)-3′, wherein X=A. The sequence for matched RNA complement is designated herein as SEQ ID No.: 6, 5′-r(AGCAAAYAACGC)-3′, wherein Y=A. The mismatched RNA complement sequence is designated herein as SEQ ID No.: 7, 5′-r(AGCAAAZAACGC)-3′, wherein Z=G, C or U.

[2] = system: matched DNA complement 5′-d(AGCAAAXAACGC)-3′, X=A; test: Thermal stability (Tm) of 12mer oligomeric compounds duplexed to matched DNA complement; conditions: relative to unmodified DNA 12mer ISIS 438705; 1.2 μM, 10 mM sodium phosphate buffer pH 7.2, 100 mM NaCl, 0.1 mM EDTA
Procedure: as §1, §2, §3

[3] = system: matched RNA complement 5′-r(AGCAAAYAACGC)-3′, Y=A; test: Thermal stability (Tm) of 12mer oligomeric compounds duplexed to matched RNA complement; conditions: relative to unmodified DNA 12mer ISIS 438705; 1.2 μM, 10 mM sodium phosphate buffer pH 7.2, 100 mM NaCl, 0.1 mM EDTA
Procedure: as §1, §2, §3

[4] = system: mismatched RNA complement 5′-r(AGCAAAZAACGC)-3′, Z=U; test: Mismatch discrimination (Tm) vs mismatched RNA complement, Z=U; conditions: 1.2 μM, 10 mM sodium phosphate buffer pH 7.2, 100 mM NaCl, 0.1 mM EDTA
Procedure: as §1
as §2, with “Mismatched thermal stability was also measured and calculated by subtracting values of Tm measured vs the mismatched RNA complement from values of Tm vs the matched RNA complement for each modification.” left out
as §3

[5] = system: mismatched RNA complement 5′-r(AGCAAAZAACGC)-3′, Z=C; test: Mismatch discrimination (Tm) vs mismatched RNA complement, Z=C; conditions: 1.2 μM, 10 mM sodium phosphate buffer pH 7.2, 100 mM NaCl, 0.1 mM EDTA
Procedure: as §1
as §2, with “Mismatched thermal stability was also measured and calculated by subtracting values of Tm measured vs the mismatched RNA complement from values of Tm vs the matched RNA complement for each modification.” left out
as §3

A01: 12mer GCGTTTbTTTGCT with one α-L-TriNA (α-L-tricyclic nucleic acid) nucleoside, phosphodiester linkages, SEQ ID No. 5 (DNA GCGTTT_{b}TTTGCT; as printed in the source, key not given here) [Compound A01]
ΔTm/mod vs RNA, Mismatched, Z = G; Mismatched Discrimination [Tm(mismatched) − Tm(matched)] [1]: −5.5 °C | ΔTm/mod vs DNA, Matched, X = A [2]: +2.6 °C | ΔTm/mod vs RNA, Matched, Y = A [3]: +7.1 °C | ΔTm/mod vs RNA, Mismatched, Z = U; Mismatched Discrimination [Tm(mismatched) − Tm(matched)] [4]: −17.0 °C | ΔTm/mod vs RNA, Mismatched, Z = C; Mismatched Discrimination [Tm(mismatched) − Tm(matched)] [5]: −16.7 °C

ISIS 438705: unmodified 12mer DNA GCGTTTTTTGCT, phosphodiester linkages, SEQ ID No. 5, purchased from commercial sources (unmodified DNA)
ΔTm/mod vs RNA, Mismatched, Z = G; Mismatched Discrimination [Tm(mismatched) − Tm(matched)] [1]: −4.1 °C | ΔTm/mod vs DNA, Matched, X = A [2]: 0 (ref) ° C. | ΔTm/mod vs RNA, Matched, Y = A [3]: 0 (ref) ° C. | ΔTm/mod vs RNA, Mismatched, Z = U; Mismatched Discrimination [Tm(mismatched) − Tm(matched)] [4]: −13.2 °C | ΔTm/mod vs RNA, Mismatched, Z = C; Mismatched Discrimination [Tm(mismatched) − Tm(matched)] [5]: −13.0 °C

ISIS 438707: 12mer GCGTTT1TTTGCT with one LNA nucleoside, phosphodiester linkages, SEQ ID No. 5 (DNA GCGTTT_{1}TTTGCT; as printed in the source, key not given here)
ΔTm/mod vs RNA, Mismatched, Z = G; Mismatched Discrimination [Tm(mismatched) − Tm(matched)] [1]: −5.4 °C | ΔTm/mod vs DNA, Matched, X = A [2]: +1.7 °C | ΔTm/mod vs RNA, Matched, Y = A [3]: +5.5 °C | ΔTm/mod vs RNA, Mismatched, Z = U; Mismatched Discrimination [Tm(mismatched) − Tm(matched)] [4]: −13.7 °C | ΔTm/mod vs RNA, Mismatched, Z = C; Mismatched Discrimination [Tm(mismatched) − Tm(matched)] [5]: −15.4 °C

ISIS 560180: 12mer GCGTTTaTTTGCT with one α-L-LNA nucleoside, phosphodiester linkages, SEQ ID No. 5 (DNA GCGTTT_{a}TTTGCT; as printed in the source, key not given here)
ΔTm/mod vs RNA, Mismatched, Z = G; Mismatched Discrimination [Tm(mismatched) − Tm(matched)] [1]: −4.7 °C | ΔTm/mod vs DNA, Matched, X = A [2]: +1.4 °C | ΔTm/mod vs RNA, Matched, Y = A [3]: +5.7 °C | ΔTm/mod vs RNA, Mismatched, Z = U; Mismatched Discrimination [Tm(mismatched) − Tm(matched)] [4]: −13.5 °C | ΔTm/mod vs RNA, Mismatched, Z = C; Mismatched Discrimination [Tm(mismatched) − Tm(matched)] [5]: −14.8 °C
